Experiments:
unstimulated splenocytes = assay: Murine splenocytes, 24 hour pre-incubation with compound then mitogenic stimulation; assay type: cell-based, Male Skh-1 (hairless) mice; details: 10 μM
Description: Male Skh-1 (hairless) mice, six weeks old were killed by cervical dislocation. Single cell suspensions were made from their spleens and erythrocytes were lysed in buffer (0.14M NH4Cl, 17 mM Tris, pH 7.2). The remaining splenocytes were cultured in RPMI-1640 (Gibco) supplemented with 10% (v:v) FBS, 200 mM L-glutamine, penicillin/streptomycin and […] 2-mercaptoethanol. Splenocytes were added to triplicate wells containing either concanavalin A (ConA, Sigma-Aldrich—0.4 μg/well), lipopolysaccharide (LPS, Sigma-Aldrich—1 μg/well) or no mitogen, as well as 10 μM of either Compound 1 or Compound 2 in DMSO, or DMSO alone. Samples were analysed after a 3 day incubation at 37° C. in 5% CO2 in air. To assess cell numbers, methylthiazoletetrazolium (MTT) was added to each well, incubated for a further 4 hrs and then colour developed with 0.04N HCl in isopropanol (Mosmann 1983). Plates were read at 570 nm and 630 nm. The compounds were examined several times using different mice. For each assay, the effect of test compound was compared with that of vehicle control, and the results compared using a student's t test (Prism). Statistically significant difference was determined to have occurred when p<0.05.
Another assay examined the effect pre-incubating unstimulated splenocytes with test compounds at 10 μM for 24 hours, removing the compounds and then assessing their ability to respond to mitogenic stimulation as described for the previous assay. Cell numbers were assessed after the 24 hr pre-incubation using MTT, and equal numbers of cells/well plated into 96 well plates as usual.

[1] = system: breast cancer cell line MDA-MB-468; assay: In vitro cytotoxicity, MTT proliferation assay, MDA-MB-468; assay type: cell-based, human; details: Homo sapiens; Breast MDA-MB-468
Description: (§1) The human pancreatic cancer cell line, HPAC (CRL-2119) was routinely cultured in 1:1 mixture DMEM (Sigma) plus Ham's F12 (Sigma) medium containing HEPES (15 mM), insulin (0.002 mg/ml), transferrin (0.005 mg/ml), hydrocortisone, (40 ng/ml), epidermal growth factor (10 ng/ml). The ovarian cancer cell line CP70 was obtained as a gift from Dr. Gil Mor (Yale University) and cultured in a 1:1 mixture DMEM plus Ham's F12 medium, and SKOV-3 was purchased from ATCC and cultured in McCoy's 5a medium. The breast cancer cell line MDA-MB-468 cultured in Leibovitz's L-15 medium.
(§2) All cultures were supplemented with 10% FCS(CSL, Australia), penicillin (100 U/ml), streptomycin ([…]), L-glutamine (2 mM) and sodium bicarbonate (1.2 g/L), and cultured at 37° C. in a humidified atmosphere of 5% CO2. All remaining cell lines were purchased from ATCC (Maryland, USA) except where noted.
(§3) IC50 values were determined for each cell line. Cells were seeded in 96-well plates at an appropriate cell density as determined from growth kinetics analysis. NFFs were cultured for 5 days and RK-13s for 24 hrs in the absence and presence of the test compounds. Cell proliferation was assessed after the addition of 20 μl of 3-4,5 dimethylthiazol-2,5-diphenyl tetrazolium bromide (MTT, 2.5 mg/ml in PBS, Sigma) for 3-4 hrs at 37° C. according to manufacturer's instructions. IC50 values were calculated from semi-log plots of % of control proliferation on the y-axis against log dose on the x-axis.

LNCaP (Prostate) = assay: In vitro cytotoxicity, MTT proliferation assay, LNCaP; assay type: cell-based, human; details: Homo sapiens
Description: as §1, §2, §3

CCRF-CEM (Leukemic) = assay: In vitro cytotoxicity, MTT proliferation assay, CCRF-CEM; assay type: cell-based; details: Homo sapiens
Description: as §1, §2
as §3, with “NFFs were cultured for 5 days and RK-13s for 24 hrs in the absence and presence of the test compounds.” left out

[2] = Toxicity study, i/p administration in mice; assay type: in vivo; details: 50 mg/kg i/p daily
Description: In a small study, BALB/cnu/nu mice were administered with either Compound 2 (n=2) as a solution in 6% Tween 20:PBS at 50 mg/kg or an equivalent volume of vehicle (n=2), by i/p injection. Mice were weighed and observed for signs of toxicity daily using clinical monitoring sheets. On day 9, mice were killed by cervical dislocation, and the kidney, spleen and liver of each mouse were collected for histological assessment of toxicity.

HTB-138 (Glioma) = assay: In vitro cytotoxicity, MTT proliferation assay, HTB-138; assay type: cell-based, human; details: Homo sapiens; Glioma HTB-138
Description: as §1, §2, §3

MM96L (Melanoma) = assay: In vitro cytotoxicity, MTT proliferation assay, MM96L; assay type: cell-based, human; details: Homo sapiens
Description: as §1, §2, §3

HT-29 (Colorectal) = assay: In vitro cytotoxicity, MTT proliferation assay, HT-29; assay type: cell-based, human; details: Homo sapiens; Colorectal HT-29
Description: as §1, §2, §3

[3] = system: RK-13 (rabbit kidney) cells; assay: Normal cell toxicity, MTT proliferation assay, rabbit kidney cells; assay type: cell-based; details: Oryctolagus cuniculus, 24 hrs
Description: Neonatal foreskin fibroblasts (NFF) were a gift from Dr. Peter Parsons (Queensland Institute of Medical Research). RK-13 (rabbit kidney) cells were obtained from Miller Whalley (Macquarie University). Both cell types were cultured in RPMI supplemented with 10% FCS (CSL, Australia), penicillin (100 U/ml), streptomycin ([…]), L-glutamine (2 mM) and sodium bicarbonate (1.2 g/L), and cultured at 37° C. in a humidified atmosphere of 5% CO2.
as §3

HT-29 (Colorectal) cells = assay: Chemosensitisation, combination with antineoplastic agent, HT-29; assay type: cell-based, human; details: for synergy with Paclitaxel: Cpd. 2 1 μM and 2 μM
Description: The utility of the dimeric compounds of the invention to act as a chemosensitiser when used in combination with an array of standard chemotherapeutic agents was assessed. Dimeric Cpd. 2 was applied to various colorectal and pancreatic cancer cell lines to investigate its synergy with standard chemotherapeutic agents including cisplatin, gemcitabine, paclitaxel, doxorubicin, camptothecin and topotecan.
The experiment as outlined in SOP-BD011 (Versions A and B) was used to screen three antineoplastic agents against a given cell line in any ‘one’ experiment (see for example Kanzawa et al., (1997)). The inherent design of the experiment allowed for three sequences of Cpd. 2 and an antineoplastic agent. • 1) Direct Sequence—Cells are treated with both Cpd. 2 and a single antineoplastic agent (combined) for 5 days. • 2) Cpd. 2 First (Forward) Sequence—Cells are treated for 24 hours with Cpd. 2 before replacing with a 24 hour antineoplastic agent treatment; drugs are then washed out and processed on Day 5. • 3) Reverse Sequence—The reverse order to experiment No. 2 above. i.e. a cytotoxin first sequence Results and Conclusions
All data was evaluated using the formulae of theoretic additivity incorporated into a three dimensional model, as described by Kanzawa et al. (1997). This allows for simple data interpretation as values in excess of 10% are defined as ‘synergistic’ (depicted in grey) whilst those below −10% are defined as ‘antagonistic’ (depicted in black).

## COc1ccc(C23COc4c(ccc(O)c4C)C2C2c4ccc(O)c(C)c4OCC2c2cc(OC)c(OC)cc23)cc1OC (stereo not drawn) [Cpd. 2, 4,9-Dihydroxy-14,15-dimethoxy-12a-(3′,4′-dimethoxyphenyl)-3,10-dimethyl-2,11-dioxa-(1H,12H)-6b,6c,12a,16b-tetrahydronaphtho[1,2-g]chrysene]
Unstimulated splenocytes
  Splenocyte viability following three days' culture in the absence of mitogen: significantly reduced
  reduction in cell numbers compared with vehicle alone: 55%
Unstimulated splenocytes; compound removed
  proliferative response to ConA after pre-incubation: significantly less
[1]
  IC50: 8.59 ± 0.35 µM
LNCaP (Prostate)
  IC50: 12 ± 4.3 µM
CCRF-CEM (Leukemic)
  IC50: 10.3 ± 1.33 µM
[2]; 9 days
  body weight gain vs vehicle: no difference
  clinical signs: no abnormal clinical signs
[2]; day 9
  histological assessment of toxicity (kidney, spleen, liver): no histological evidence of toxicity
HTB-138 (Glioma)
  IC50: 16.4 µM
MM96L (Melanoma)
  IC50: 6.8 µM
HT-29 (Colorectal)
  IC50: 11.5 ± 6 µM
[3]
  IC50: 36 ± 2.7 µM
HT-29 (Colorectal) cells; Doxorubicin first (C)
  synergy with Doxorubicin: no synergy
HT-29 (Colorectal) cells; combination (A) and forward (B) sequences
  synergy with Doxorubicin: strong synergistic cytotoxicity
HT-29 (Colorectal) cells; combination (A)
  synergy with Paclitaxel: strong synergy
HT-29 (Colorectal) cells; forward (A) and reverse (B) sequences, Cpd. 2 5 μM and 10 μM
  synergy with Gemcitabine: synergistic cytotoxicity
HT-29 (Colorectal) cells; forward (B) and reverse (C) 24 hour sequences
  synergy with Paclitaxel: Less significant regions of synergy

Source: patent US7700644B2, “Isoflavonoid dimers” (Novogen Research Pty Ltd, priority 2005, dated 2010)
